Literature values as cited in US20210154215A1, “Antifungal Cuticle Oil Composition” (Zenvision Pharma LLP, priority 2018, published 2021).

Solubility in water | Solubility in propylene glycol (propylene glycol) | Compound | Solubility in ethanol | Solubility in methanol (methanol) | Solubility in methylene chloride (methylene chloride)
practically insoluble |  | C=C1CCN([C@H](C)[C@](O)(Cn2cncn2)c2ccc(F)cc2F)CC1 [Efinaconazole, (2R,3R)-2-(2,4-difluorophenyl)-3-(4-methylenepiperidin-1yl)-1-(1H-1,2,4-triazol-1-yl)butan-2ol] |  |  | 
slightly soluble | freely soluble | OB1OCc2cc(F)ccc21 [Tavaborole, 5-fluoro-1,3-dihydro-1-hydroxy-2,1-benzoxaborole] | freely soluble |  | 

Compound | Solubility in water | Solubility in propylene glycol (propylene glycol) | Solubility in ethanol | Solubility in methanol (methanol) | Solubility in methylene chloride (methylene chloride)
CN(C/C=C/C#CC(C)(C)C)Cc1cccc2ccccc12.Cl [Terbinafine hydrochloride, (E)-N-(6,6-dimethyl-2-hepten-4-ynyl)-N-methyl-1-naphthalenemethanamine hydrochloride] | slightly soluble |  | soluble | freely soluble | freely soluble
